Reference: patent publication US20080299599A1, “FLUORESCENT PROTEINS FOR MONITORING INTRACELLULAR SUPEROXIDE PRODUCTION” (priority 2006, published 2008)
Where two headings read alike, the source gives them in different places.

Experiments:
[1] = tested on: rat PC12 pheochromocytoma cells; assay type: cell-based; conditions: for occurrence of superoxide flashes: ρ− PC12 cells; for incidence of superoxide flashes: ethidium bromide 200 ng/ml for 60 days, PC12 cells
Description: (§1) Enzymatically isolated rat ventricular myocytes and hippocampal neurons in primary culture were infected with adenovirus carrying the mt-cpYFP gene or its mutants at an m.o.i. of 1:100 and cultured for 2 to 3 days (Zhou et al., Am. J. Physiol. Heart Circ. Physiol., 279; H429-H436, 2000). Similar conditions were used when expressing mt-cpYFP in other cell types. To obtain spatially and temporally resolved fluorescent images of mt-cpYFP, a Zeiss LSM 510 confocal microscope equipped with a 63×, 1.3NA oil immersion objective and a sampling rate of 0.7 s/frame was used. Dual wavelength excitation imaging of mt-cpYFP was achieved by alternating excitation at 405 and 488 nm and collecting emission at >505 nm. Tri-wavelength excitation imaging of mt-cpYFP and TMRM (20 nM) or rhod-2 was achieved by tandem excitation at 405, 488, and 543 nm, and the emission was collected at 515-550, 515-550 and >560 nm, respectively. To increase mitochondrion retention of rhod-2, the indicator loading protocol described by Hajnoczky C et al. was used with modification (Hajnoczky et al., Cell, 82: 415-424, 2000). Briefly, cells were loaded with 4 μM rhod-2 AM (after NaBH4 quenching) at 4° C. for 1 hr, and then changed to normal culture medium for 4 hrs. The standard extracellular perfusion solution contained (in mM): NaCl 137, KCl 4.9, CaCl21, MgSO4 1.2, NaH2PO4 1.2, glucose 15, and HEPES 20 (pH 7.4). Digital image processing was performed using IDL software (Research Systems) and customer-devised programs.
(§2) ρ° 143B TK human osteosarcoma cells and its wild type control were a generous gift from Dr. Nadja C. de Souza-Pinto (National Institute on Aging, NIH). Wild type and ρ° 143B cells were cultured under identical conditions, in DMEM medium supplemented with 10% FBS, 100 μg/ml pyruvate, 100 μg/ml bromodeoxyuridine and 50 μg/ml uridine17. Mitochondria of ρ° 143B cells completely lack mitochondrial respiration, due to the loss of critical ETC proteins including constituents of complex I (ND1-6, ND4L), complex III (cytochrome b) and complex IV (COX I-III) encoded by mitochondrial DNA. To partially deplete mitochondrial DNA and allow partial disruption of mitochondrial respiration, PC12 pheochromocytoma cells were cultured in DMEM medium with 10% FBS, 200 ng/ml ethidium bromide, 100 μg/ml pyruvate and 50 μg/ml uridine for up to 60 days. Depletion of mitochondrial DNA was evidenced by western blot analysis of cytochrome C oxidase subunit I.

[2] = tested on: superoxide flashes in rat cardiac myocytes; assay: Confocal imaging of superoxide flashes in cardiac myocytes expressing mt-cpYFP; assay type: cell-based; conditions: for occurrence of superoxide flashes: cardiac myocytes
Protocol: Similar conditions were used when expressing mt-cpYFP in other cell types. […] Briefly, cells were loaded with 4 μM rhod-2 AM (after NaBH4 quenching) at 4° C. for 1 hr, and then changed to normal culture medium for 4 hrs. […] Digital image processing was performed using IDL software (Research Systems) and customer-devised programs.

[3] = tested on: ρ° 143B TK-human osteosarcoma cells; assay: Superoxide flashes in mitochondrial DNA-deleted ρ° 143B cells; assay type: cell-based; conditions: atractyloside 20 μM
Description: as §1, with “Digital image processing was performed using IDL software (Research Systems) and customer-devised programs.” left out

[4] = tested on: superoxide flashes in cardiac myocytes; assay: Superoxide flashes in cardiac myocytes during hypoxia and reoxygenation; assay type: cell-based, rat; conditions: diazoxide 30 μM added 20 min prior to hypoxia
Description: as §1, with “Digital image processing was performed using IDL software (Research Systems) and customer-devised programs.” left out

[5] = tested on: cytochrome C oxidase subunit I (COX-1); assay: Western blot of cytochrome C oxidase subunit I in ethidium bromide-treated PC12 cells; assay type: cell-based, rat; conditions: ethidium bromide 200 ng/ml for 60 days
Protocol: as §2

cellular ROS production = conditions: previous finding, Aon et al. 2003; cited from earlier work
[6] = Spectral analysis of purified cpYFP: in vitro redox calibration and response to ROS and metabolites; assay type: biochemical
Protocol: cpYFP cDNA (807 bp) was cloned into a prokaryotic expression vector (pRSET) and transferred into E. Coli cell line (BL21(DE3)LysS) for large-scale protein expression. In vitro redox calibration of cpYFP fluorescence was carried out using methods described previously (Hanson et al., J. Biol. Chem., 279: 13044-13053, 2004). Briefly, under an inert environment, purified cpYFP protein (1 μM) was incubated with either 10 mM reduced DTT or 1 mM aldrithiol for at least 3 hours, allowing for solution equilibration. Reduced DTT was removed from the solution allowing measurement of cpYFP response to various ROS and metabolites. The calibration solution contained (in mM): HEPES 75, KCl 125, and EDTA 1, pH=8.0. Emission and excitation spectra of reduced and oxidized cpYFP in the presence of designated reagents were obtained with a spectrofluorimeter (Model: CM1T101, HORIBA Jobin Yvon, Inc.) filled with nitrogen gas.
Using cpYFP purified from an E. coli expression system, excitation and emission fluorescence spectra were measured in response to reducing (10 mM reduced DTT) and oxidizing manipulations (1 mM aldrithiol). […] Extensive in vitro experiments were performed to determine the selectivity of cpYFP among physiologically relevant oxidants and metabolites. […] The cpYFP signal, however, was insensitive to hydrogen peroxide (H2O2) over a wide range of concentrations (0.1-10 mM) (FIG. 1c) and peroxynitrite (FIG. 2), and was decreased by hydroxyl radicals (.OH) (FIG. 1c) and nitric oxide (FIG. 2).

C=C(C)[C@H]1Cc2c(ccc3c2O[C@@H]2COc4cc(OC)c(OC)cc4[C@@H]2C3=O)O1 [Rotenone]
occurrence of superoxide flashes ([1]; rotenone 5 μM): virtually abolished
occurrence of superoxide flashes ([2]; rotenone 5 μM): virtually abolished

C=C1[C@@H]2CC[C@H]3[C@]4(C)C[C@H](O[C@@H]5O[C@H](CO)[C@@H](OS(=O)(=O)O)[C@H](OS(=O)(=O)O)[C@H]5OC(=O)CC(C)C)C[C@@H](C(=O)O)[C@H]4CC[C@]3(C2)[C@H]1O [atractyloside]
rescue of superoxide flashes in ρ° cells [3]: cannot be rescued
effect on superoxide flash frequency ([2]; atractyloside 20 μM): significantly augment superoxide flash frequency

CO[C@H](C/C=C\C=C\CC/C=C/C[C@H](C)/C=C/C(=C\C(=O)O)CC(=O)O)/C(C)=C\C=C(/C)C(=O)O [bongkrekic acid]
effect on superoxide flash amplitude ([2]; bongkrekic acid 100 μM): reducing their amplitude
effect on superoxide flash kinetics ([2]; bongkrekic acid 100 μM): abbreviating their kinetics
incidence of superoxide flashes ([2]; bongkrekic acid 100 μM): 33 % of control

CC1=NS(=O)(=O)c2cc(Cl)ccc2N1 [diazoxide]
effect on rebound flurry of superoxide flash activity after reoxygenation [4]: effectively protected the cells from the rebound flurry of superoxide flash activity

CC[n+]1c(-c2ccccc2)c2cc(N)ccc2c2ccc(N)cc21 [ethidium bromide]
incidence of superoxide flashes [1]: 60 % of control
incidence of superoxide flashes ([1]; wild type 63±6): 23±3 events per 1000 μm2 cell area per 100 s
cytochrome C oxidase subunit I (COX-1) expression [5]: 70 % of control

O=S(=O)(O)c1cc(O)c(O)c(S(=O)(=O)O)c1 [tiron]
effect on frequency and amplitude of flashes ([2]; tiron 1 mM): similarly diminished the frequency and amplitude of flashes

C160A/C182A: SEQ ID NO. 1 with both cysteines C160 and C182 substituted to alanine
response of the probe to superoxide after cysteine substitution ([2]; residue numbering of SEQ ID NO. 1): completely abolishes the response of the probe to superoxide

MnTMPyP
inhibition of flash activity ([2]; MnTMPyP 50 μM): 83%
flash amplitude (ΔF/F0) ([2]; MnTMPyP 50 μM, n=12, p<0.01 vs control): 0.18±0.02

antimycin A
effect on cellular ROS production measured with DCF (cellular ROS production): increases cellular ROS production
occurrence of superoxide flashes ([1]; antimycin A 5 μg/ml): virtually abolished
occurrence of superoxide flashes ([2]; antimycin A 5 μg/ml): virtually abolished

cpYFP: circularly permuted yellow fluorescent protein; superoxide probe of SEQ ID NO. 1, pericam without calmodulin and M13 domains
brightness of oxidized cpYFP versus fully reduced species ([6]; 1 mM aldrithiol vs 10 mM reduced DTT, excited at 488 nm): about five times brighter
cpYFP signal response to other metabolites ([6]; ATP, ADP, NAD(P)+, NAD(P)H and Ca2+ at physiological concentrations): negligible or only marginal effects
cpYFP signal response to hydroxyl radicals ([6]; Fenton reaction, 1 mM H2O2 plus 0.1 mM FeSO4, anaerobic): decreased
cpYFP signal response to hydrogen peroxide ([6]; H2O2 0.1-10 mM): insensitive
cpYFP signal response to peroxynitrite ([6]; SIN-1 1 mM in aerobic solution): insensitive
cpYFP signal response to nitric oxide ([6]; SIN-1 1 mM in anaerobic solution): decreased
cpYFP brightness dependence on pH ([6]; basic environments, e.g. mitochondrial matrix pH 8.0): brighter in basic environments
increase of cpYFP fluorescence in response to O2.− ([6]; xanthine/xanthine oxidase (2 mM/20 mU), aerobic, compared to fully reduced state): 420%
